The source of these data is publication PMC6467771 (Journal of medicinal chemistry, 2019).

Converted amounts (≈) assume the structure as drawn. Read-outs that look alike come from different tables or passages of the source. A value given as a limit tells only on which side of the number the result lay.

One data set addresses FmlH (Escherichia coli, UniProt Q1RBS0). The format is binding, Escherichia coli (UPEC, CFT073).
A short description of data set [1]: Stability in simulated gastric fluid. The format is in vitro ADME.
A short description of data set [2]: Stability in simulated intestinal fluid. The format is in vitro ADME.
The nature of data set [3]: Mouse liver microsome stability. It counts as in vitro ADME. In general terms: Liver microsomes are a subcellular fraction often used to study metabolism.
The nature of another data set: Mouse plasma stability. The format is in vitro ADME.
The nature of data set [4]: Kinetic aqueous solubility. The format is physicochemical. Conditions: pH 7.4; for solubility kinetic: aqueous solution.
The nature of the next data set: Rat pharmacokinetics. The format is in vivo. Conditions: for renal clearance to the urine: after IV and PO administration.
The test system of data set [5] is uropathogenic Escherichia coli (UPEC). The settings on record: cited from earlier work.
The mark [6] stands for this setting: IC50, ELISA, FmlH binding to desialylated bovine submaxillary mucin, average of four or more replicates.

Take “N-((2S,3S,4R,5R)-4/5-Dihydro xy-6-(hydroxymethyl)-2-((6-methyl-3’-(methylsulfonamido)-[1,1’-biphenyl]-2-yl)oxy)tetrahydro-2H-pyran-3-yl)-2,2,2-trifluoroacetimidic Acid [Compound 88]”: the IC50 at FmlH (ELISA, FmlH binding to desialylated bovine submaxillary mucin, average of four or more replicates) stood at 48 nM. Also, in data set [1], the “SGF (% remaining @ 6 h)” value is 91%. Moreover, in data set [2], the “SIF (% remaining @ 2 h)” value was 89%. In addition, in data set [3], the “mouse liver microsomes (t1/2 min)” value is more than 2.42 h. The “mouse plasma (% remaining @ 2 h)” value in “Mouse plasma stability” was found to be 89%. The molecule further showed a kinetic solubility in data set [4] (aqueous) of 164 µM.

In turn, `CC(=O)N[C@H]1[C@H](Oc2cccc(C)c2-c2cccc(NS(=O)(=O)C3CC3)c2)O[C@H](CO)[C@H](O)[C@@H]1O` [Compound 86, N-((2S,3R,4R,5R,6R)-2-((3’-(Cyclopropanesulfonamido)-6-meth-yl-[1,1’-biphenyl]-2-yl)oxy)-4,5-dihydroxy-6-(hydroxymethyl)-tetrahydro-2H-pyran-3-yl)acetamide] showed an IC50 at FmlH (setting [6]) of 51 nM. In addition, the solubility (kinetic) in data set [4] was 196 µM (≈ 99.3 µg/mL). In addition, the “renal clearance to the urine” value in “Rat pharmacokinetics” is “low renal clearance to the urine”.

As for `CC(=O)N[C@H]1[C@H](Oc2ccccc2-c2cccc(C(=O)O)c2)O[C@H](CO)[C@H](O)[C@@H]1O` [Compound 1], the half-maximal inhibitory concentration (IC50) at FmlH (setting [6]) was 640 nM. Further, the “effect on bacterial titers in bladder and kidney” value in data set [5] (co-administration with 4Z269, a mannoside inhibitor of FimH) is “further reduced bacterial titers in both the bladder and kidney”. Moreover, the “effect on bladder and kidney CFUs” value in data set [5] (treatment model of chronic cystitis) was “significantly reduce bladder and kidney CFUs”.

Turning to `CC(=O)N[C@H]1[C@H](Oc2cccc(C)c2-c2cccc(NS(C)(=O)=O)c2)O[C@H](CO)[C@H](O)[C@@H]1O` [Compound 84, N-((2S,3R/4R/5R,6R)-4/5-Dihydroxy-6-(hydroxymethyl)-2-((6-methyl-3’-(methylsulfonamido)-[1,1’-biphenyl]-2-yl)oxy)-tetrahydro-2H-pyran-3-yl)acetamide], the IC50 on FmlH (setting [6]) is 62 nM; on FmlH (IC50 expressed as a concentration, converted from IC50 of 120 nM), 120 nM. Also, the solubility (kinetic) in data set [4] was determined as 195 µM (≈ 93.7 µg/mL).

Regarding `CC(=O)NC1[C@H](Oc2cccc(C(F)(F)F)c2-c2cccc(NS(C)(=O)=O)c2)O[C@H](CO)[C@H](O)[C@@H]1O` (stereo in doubt) [Compound 90, N-((2S,3S,4R,5R)-4,5-Dihydroxy-6-(hydroxymethyl)-2-((3’-(meth-ylsulfonamido)-6-(trifluoromethyl)-[1,1’-biphenyl]-2-yl)oxy)-tetrahydro-2H-pyran-3-yl)acetamide], the “fold greater potency / improvement in activity relative to 1” value on FmlH (ELISA IC50 ratio) was approximately 20 fold. At FmlH (setting [6]), this molecule came in with an IC50 of 34 nM. The “renal clearance to the urine” value in “Rat pharmacokinetics” is given as “low renal clearance to the urine”. The same molecule yielded a clearance in “Rat pharmacokinetics” (plasma, iv, 3 mg/kg) of 57 mL/min/kg.

`CC(=O)NC1[C@H](Oc2ccccc2-c2cccc(NC(=O)C(F)(F)F)c2)O[C@H](CO)[C@H](O)[C@@H]1O` (stereo in doubt) [Compound 44, N-(2’-(((2S,3S,4R,5R)-3-Acetamido-4,5-dihydroxy-6 (hydroxymethyl)tetrahydro-2H-pyran-2-yl)oxy)-[1,1’-biphenyl]-3-yl)-2,2,2-trifluoroacetamide] had an IC50 at FmlH (setting [6]) of 370 nM.

Take `COc1ccc(O)cc1-c1ccccc1O[C@@H]1O[C@H](CO)[C@H](O)[C@H](O)[C@H]1NC(C)=O` [Compound 34, N-((2S,3R,4R,5R,6R)-4,5-Dihydroxy-2-((5’-hydroxy-2’ methoxy-[1,1’-biphenyl]-2-yl)oxy)-6-(hydroxymethyl)tetrahydro-2H-pyran-3-yl)acetamide]: at FmlH (setting [6]), the IC50 amounted to 510 nM.

Regarding `CC(=O)N[C@H]1[C@H](Oc2ccccc2-c2cccc(F)c2)O[C@H](CO)[C@H](O)[C@@H]1O` [Compound 36, N-((2S,3R,4R,5R,6R)-2-((3 ‘-Fluoro-[1,1’-biphenyl]-2-yl)oxy)-4,5-dihydroxy-6-(hydroxymethyl)tetrahydro-2H-pyran-3-yl)acetamide], the half-maximal inhibitory concentration (IC50) on FmlH (setting [6]) was 1500 nM.

With `CC(=O)N[C@H]1[C@H](Oc2cccc(C(=O)O)c2-c2cccc(NS(C)(=O)=O)c2)O[C@H](CO)[C@H](O)[C@@H]1O` [Compound 82, 6-(((2S,3S,4R,5R)-3-Acetamido-4,5-dihydroxy-6 (hydroxymethyl)tetrahydro-2H-pyran-2-yl)oxy)-3 ‘-(methylsulfona-mido)-[1,1’-biphenyl]-2-carboxylic Acid], the IC50 on FmlH (setting [6]) is 66 nM.

Regarding `CC(=O)N[C@H]1[C@H](Oc2ccccc2-c2cccc(CO)c2)O[C@H](CO)[C@H](O)[C@@H]1O` [Compound 42, N-((2S,3R,4R/5R/6R)-4/5-Dihydroxy-6-(hydroxymethyl)-2-((3’-(hy-droxymethyl)-[1,1’-biphenyl]-2-yl)oxy)tetrahydro-2H-pyran-3-yl)-acetamide], the IC50 at FmlH (setting [6]) worked out at 630 nM.

On FmlH (setting [6]), `CC(=O)N[C@H]1[C@H](Oc2ccccc2-c2cccc(C#N)c2)O[C@H](CO)[C@H](O)[C@@H]1O` [Compound 39, N-((2S,3R,4R,5R,6R)-2-((3’-Cyano-[1,1’-biphenyl]-2-yl)oxy)-4,5-dihydroxy-6-(hydroxymethyl)tetrahydro-2H-pyran-3-yl)acetamide] showed an IC50 of 970 nM.

In turn, `CC(=O)N[C@H]1[C@H](Oc2cccc(F)c2-c2cccc(NS(C)(=O)=O)c2)O[C@H](CO)[C@H](O)[C@@H]1O` [Compound 80, N-((2S,3R,4R,5R,6R)-2-((6-Fluoro-3’-(methylsulfonamido)-[1,1’- biphenyl]-2-yl)oxy)-4,5-dihydroxy-6-(hydroxymethyl)tetrahydro-2H-pyran-3-yl)acetamide] displayed an IC50 on FmlH (setting [6]) of 88 nM. In data set [4], this molecule displayed a solubility (kinetic) of 197 µM (≈ 95.4 µg/mL).

Broadly, the IC50 is the concentration that gives 50% inhibition. The low end stands for higher potency, the high end for lower potency. A word on the kinetic solubility: it is the concentration staying in solution when a stock, usually in DMSO, is diluted into the medium. In general, clearance refers to the rate of elimination divided by the concentration.
